Columns and labels:
hERG potassium channel = hERG potassium channel (Homo sapiens (Human), UniProt Q12809); test: hERG inhibitory activity, manual patch clamp; type: cell-based; conditions: HEK293 cells stably expressing hERG
Method: The inhibition of hERG activity by the compound of the present invention was determined using the following method.
HEK293 cells (Cat. No: K1236) stably expressing hERG ion channel were purchased from Invitrogen. The cells were cultured in a culture medium containing 85% DMEM, 10% dialyzed fetal bovine serum, 0.1 mM non-essential amino acid solution, 100 U/mL penicillin-streptomycin solution, 25 mM HEPES, 5 μg/mL blasticidin, and 400 μg/mL geneticin. When the cell density increased to 40-80% of the bottom area of the culture dish, the cells were digested with trypsin and subcultured thrice every week. Before the experiment, the cells were cultured at a density of 5×10^5 in 6-cm culture dishes, induced for 48 h with 1 μg/mL doxycycline, and then digested and inoculated on a slide for the subsequent manual patch-clamp experiment. […]
• 1) The slides carrying HEK293 cells in the culture dish were placed in the perfusion chamber of the micromanipulation stage. • 2) Appropriate cells were placed in the center of the field of view under an Olympus IX51, IX71, or IX73 inverted microscope. […] The peak value of the tail current was the magnitude of the hERG current. • 9) The hERG current used to detect the test compound was recorded continuously for 120 seconds prior to dosing to assess the stability of hERG current production by the test cells. […]

[1] = Metabolic stability in human liver microsomes; type: in vitro ADME; conditions: pH 7.4, 1 μM compound, 0.5 mg/mL microsome, NADPH 1 mM, 37° C., read-out: Human liver microsome stability t1/2
Excerpt: • 1. Human liver microsome (Corning 452117), beagle dog liver microsome (XENOTECH D1000), SD rat liver microsome (XENOTECH R1000), and CD-1 mouse liver microsome (XENOTECH M1000) • 2. Na2HPO4 (Tianjin Guangfu Fine Chemical Research Institute 20180130) • 3. KH2PO4 (Tianjin Guangfu Fine Chemical Research Institute 20180920) • 4. MgCl2 (Tianjin Guangfu Fine Chemical Research Institute 20191216) • 5. NADPH (Solarbio 1216C022) • 6. Positive control compound verapamil (Sigma MKBV4993V) • 7. AB Sciex API4000 liquid chromatography-mass spectrometry system
• 1. Preparation of 100 mM phosphate-buffered saline (PBS): 7.098 g Na2HPO4 was weighed. 500 mL pure water was added. The mixture was dissolved by sonication to give solution A. 3.400 g KH2PO4 was weighed. 250 mL pure water was added. […]
All data were calculated by Microsoft Excel software. The peak area was detected through an extracted ion chromatogram. The in vitro half-life (t1/2) of the compound was determined by linear fitting of the natural logarithm of compound elimination percentage over time.
In vitro half-life (t1/2) was calculated by the slope k: […]
The in vitro intrinsic clearance (in μL/min/mg protein) was calculated using the following formula: […]

Sequence of hERG potassium channel (Q12809 whole entry): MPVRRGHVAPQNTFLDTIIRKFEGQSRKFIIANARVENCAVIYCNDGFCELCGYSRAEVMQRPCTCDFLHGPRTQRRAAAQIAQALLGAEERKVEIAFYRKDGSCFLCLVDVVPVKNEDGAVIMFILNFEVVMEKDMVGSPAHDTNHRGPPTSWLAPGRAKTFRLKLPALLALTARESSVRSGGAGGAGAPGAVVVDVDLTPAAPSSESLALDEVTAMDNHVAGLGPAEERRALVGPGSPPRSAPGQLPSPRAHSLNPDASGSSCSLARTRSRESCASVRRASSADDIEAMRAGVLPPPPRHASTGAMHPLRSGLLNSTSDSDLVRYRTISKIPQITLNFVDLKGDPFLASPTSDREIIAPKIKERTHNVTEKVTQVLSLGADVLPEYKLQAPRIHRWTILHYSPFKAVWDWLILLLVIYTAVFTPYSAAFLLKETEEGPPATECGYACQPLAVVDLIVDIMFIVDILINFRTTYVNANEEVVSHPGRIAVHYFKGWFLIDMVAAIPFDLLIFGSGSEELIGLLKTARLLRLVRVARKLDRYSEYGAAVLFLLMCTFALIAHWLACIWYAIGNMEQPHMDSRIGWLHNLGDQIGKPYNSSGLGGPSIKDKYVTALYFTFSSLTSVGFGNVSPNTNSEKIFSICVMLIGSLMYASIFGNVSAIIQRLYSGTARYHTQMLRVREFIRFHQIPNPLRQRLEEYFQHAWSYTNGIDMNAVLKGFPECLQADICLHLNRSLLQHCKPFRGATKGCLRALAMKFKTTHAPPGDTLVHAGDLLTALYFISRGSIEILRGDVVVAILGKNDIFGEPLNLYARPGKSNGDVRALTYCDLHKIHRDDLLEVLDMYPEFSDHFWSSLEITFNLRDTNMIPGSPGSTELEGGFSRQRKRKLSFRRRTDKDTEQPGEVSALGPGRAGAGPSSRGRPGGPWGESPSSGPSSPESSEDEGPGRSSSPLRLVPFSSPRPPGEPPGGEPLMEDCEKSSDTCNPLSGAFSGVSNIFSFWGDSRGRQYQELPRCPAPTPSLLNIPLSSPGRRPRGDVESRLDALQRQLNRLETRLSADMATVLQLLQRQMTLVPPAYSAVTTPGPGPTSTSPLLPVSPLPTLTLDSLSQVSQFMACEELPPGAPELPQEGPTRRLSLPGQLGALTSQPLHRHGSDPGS

Compound: C[C@]12C=CC(=O)C=C1CC[C@@H]1[C@@H]2[C@@H](O)C[C@@]2(C)[C@H]1C[C@H]1O[C@@H](c3ccc(Cc4cc(N)c5c(c4)CCO5)cc3)O[C@]12C(=O)CO [Compound 009, (6aR,6bS,7S,8aS,8bS,10R,11aR,12aS,12bS)-10-(4-((7-amino-2,3-dihydrobenzofuran-5-yl)methyl)phenyl)-7-hydroxy-8b-(2-hydroxyacetyl)-6a,8a-dimethyl-6a,6b,7,8,8a,8b,11a,12,12a,12b-decahydro-1H-naphtho[2′,1′:4,5]indeno[1,2-d][1,3]dioxolan-4(2H)-one]
- IC50 (hERG potassium channel): > 30 µM
- half-life at 1 μM [1]: 37.8 min
